Results reported in US20230097700A1, “AZETIDINE SULFONAMIDE COMPOUND” (DAIICHI SANKYO COMPANY, LIMITED, priority 2019, published 2023).
Structures can show the parent of a compound that is named as a salt.

Test system: activated T cells (CD4+ T cells derived from the mouse spleen)
Assay: Incorporation of 3H-thymidine into activated T cells
Type: cell-based, mouse (C57BL/6J)
Conditions: 3H-thymidine incorporation, mouse spleen CD4+ T cells activated with Dynabeads Mouse T-Activator CD3/CD28
Method: Effect of a test substance on incorporation of ^3H-thymidine was evaluated using T cells derived from the mouse spleen. The spleen was excised out from a C57BL/6J mouse euthanized, cut into pieces, ground on a cell strainer (40 μm mesh) and centrifuged to collect spleen cells. CD4+ T cells were isolated from the spleen cells by use of EasySep Mouse CD4+ T cell isolation kit (STEMCELL Technologies). CD4+ T cells were seeded to a 96-well round-bottom plate. Test substance dissolved in DMSO (dimethyl sulfoxide) or vehicle (DMSO) was added to culture medium and Dynabeads Mouse T-Activator CD3/CD28 (Thermo Fisher Scientific Inc.) was added. Culture was carried out at 37° C. in 5% CO2. After culture was carried out for 24 hours, ^3H-thymidine (PerkinElmer) diluted with the culture medium was added to individual wells. Culture was further carried out overnight at 37° C. in 5% CO2. In order to measure ^3H-thymidine incorporated in nuclei of the cells, the cells were collected on a filter plate UniFilter-96 GF/B (PerkinElmer) by use of a FilterMate Universal Harvester (PerkinElmer). After the filter plate was placed in a dryer and allowed to stand still for 2 hours or more, scintillation cocktail MicroScint-O (PerkinElmer) was added and radioactivity was measured by TopCount NXT (PerkinElmer). With the radioactivity of a group not containing a test substance being specified as 100% and the radioactivity of a group not activated being specified as 0%, relative radioactivity values of individual wells to which the test substance was added (proliferation rate, % of vehicle) were calculated. The values of “% of vehicle” were entered in analysis software Prism (Version 4.03, GraphPad Software). “Nonlinear regression Log (inhibitor) vs reaction variable tilt” was selected and sigmoid type-fitting (Bottom=0, Top=100) was carried out to calculate 50% inhibition concentration (IC50). The compound of the present invention suppresses ^3H-thymidine incorporation in activated T cells.

IC50 [nM]	SMILES
10	N[C@@H](Cc1cccc(S(=O)(=O)N2CC(Oc3ccc4cn[nH]c4c3)(c3ccccc3)C2)c1)C(=O)O [Example 10, (2S)-2-Amino-3-(3-{3-[(1H-indazol-6-yl)oxy]-3-phenylazetidine-1-sulfonyl}phenyl)propanoic acid monohydrochloride]
24	Cc1ccc(OC2(c3ccc(F)cn3)CN(S(=O)(=O)c3cccc(C[C@H](N)C(=O)O)c3)C2)cc1 [Example 50, (2S)-2-Amino-3-(3-{[3-(5-fluoropyridin-2-yl)-3-(4-methylphenoxy)azetidin-1-yl]sulfonyl}phenyl)propanoic acid dihydrochloride]
6.6	N[C@@H](Cc1cccc(S(=O)(=O)N2CC(Oc3ccc4nccnc4c3)(c3ccccc3)C2)c1)C(=O)O [Example 6, (2S)-2-Amino-3-(3-{3-phenyl-3-[(quinoxalin-6-yl)oxy]azetidin-1-sulfonyl}phenyl)propanoic acid monohydrochloride]
18	C[C@@H](OC(=O)[C@@H](N)Cc1cccc(S(=O)(=O)N2CC(Oc3cccc(F)c3)(c3ccccc3)C2)c1)C(=O)N(C)C [Example 32, (2R)-1-(Dimethylamino)-1-oxopropan-2-yl (2S)-2-amino-3-{3-[3-(3-fluorophenoxy)-3-phenylazetidin-1-sulfonyl]phenyl}propanoate monotrifluoroacetate]
23	Cc1ccc(OC2(c3ccccc3)CN(S(=O)(=O)c3cccc(C[C@H](N)C(=O)O)c3)C2)cc1F [Example 45, (2S)-2-Amino-3-(3-{[3-(3-fluoro-4-methylphenoxy)-3-phenylazetidin-1-yl]sulfonyl}phenyl)propanoic acid monoformate]
3.3	N#Cc1ccc(OC2(c3ccc(F)cc3)CN(S(=O)(=O)c3cccc(C[C@H](N)C(=O)O)c3)C2)cc1 [Example 34, (2S)-2-Amino-3-{3-[3-(4-cyanophenoxy)-3-(4-fluorophenyl)azetidine-1-sulfonyl]phenyl}propanoic acid monohydrochloride]
17	N#Cc1ccc(OC2(c3ccc(F)cc3)CN(S(=O)(=O)c3cccc(C[C@H](N)C(=O)O)c3)C2)cn1 [Example 86b, monoformate]
30	CCC(=O)c1ccc(OC2(c3ccc(F)cc3)CN(S(=O)(=O)c3cccc(C[C@H](N)C(=O)O)c3)C2)cc1 [Example 19, (2S)-2-Amino-3-{3-[3-(4-fluorophenyl)-3-(4-propanoylphenoxy)azetidin-1-yl]sulfonylphenyl}propanoic acid monotrifluoroacetate]
9.9	NC(=O)c1ccc(OC2(c3ccc(Cl)cc3)CN(S(=O)(=O)c3cccc(C[C@H](N)C(=O)O)c3)C2)cc1 [Example 61, (2S)-2-Amino-3-(3-{[3-(4-carbamoylphenoxy)-3-(4-chlorophenyl)azetidin-1-yl]sulfonyl}phenyl)propanoic acid monohydrochloride]
240	CCn1cc(OC2(c3ccc(F)cc3)CN(S(=O)(=O)c3cccc(C[C@H](N)C(=O)O)c3)C2)cn1 [Example 56, (2S)-2-Amino-3-[3-({3-[(1-ethyl-1H-pyrazol-4-yl)oxy]-3-(4-fluorophenyl)azetidin-1-yl)sulfonyl)phenyl]propanoic acid dihydrochloride]
13	N[C@@H](Cc1cccc(S(=O)(=O)N2CC(Oc3ccc4c(c3)CCNC4=O)(c3ccc(F)cc3)C2)c1)C(=O)O [Example 8, (2S)-2-Amino-3-(3-{3-(4-fluorophenyl)-3-[(1-oxo-1,2,3,4-tetrahydroisoquinolin-6-yl)oxy]azetidin-1-sulfonyl}phenyl)propanoic acid monohydrochloride]
12	N[C@@H](Cc1cccc(S(=O)(=O)N2CC(Oc3ccc(-c4ccccc4)cc3)(c3ccccc3)C2)c1)C(=O)O [Example 2, (2S)-2-Amino-3-(3-{3-[([1,1′-biphenyl]-4-yl)oxy]-3-phenylazetidin-1-sulfonyl}phenyl)propanoic acid]
